# Values of other authors in patent publication US9238073B2, “Pharmaceutical composition containing sympathomimetic amine salt and co-distillable additive” (Wyeth LLC, priority 2006, dated 2016).
# Conditions: (R)-methamphetamine from reduction of (-)-pseudoephedrine
substance,measurement,value
(R)-methamphetamine,psychoactivity relative to (S)-methamphetamine,one-tenth
